Results: patent US11788044B2, “Rheologically biomimetic fluid surrogate” (EMULATE, INC., priority 2017, dated 2023)

Tests used:
[1] = tested on: neutrophil recruitment to the endothelium; assay: Neutrophil recruitment in Airway-on-Chip emulating acute asthma exacerbation (HRV-16 infection, IL-13 stimulation); type: cell-based, human; conditions: 10 microM; three stimulation conditions (HRV-16, IL-13, HRV-16+IL-13); chips flipped
Source text: As shown here, exemplary embodiments of an inflamed Airway-on-Chip emulating acute asthma exacerbation by combining Rhinovirus infection with IL-13 stimulation in the presence of an exemplary immuno-modulatory compound. In some embodiments, neutrophil recruitment following exacerbation with HRV can be reduced by an exemplary CXCR2 antagonist MK-7123, however these experiments were done by flipping chips. […] HRV-16 is represented as small green dots in the upper channel while neutrophil cells (also described as polymorphonuclear leukocytes (PMN)) are represented as large purple spots in the lower channel. […] Treatments included HRV-16 alone infected cells, IL-13 alone treated cells, HRV-16 and (+) IL-13 treated cells, HRV-16+CXCR2in (inhibitor) treated cells, and HRV-16+IL-13+CXCR2in. Non-stimulated chips are showing limited neutrophil recruitment while HRV infected and IL-13-treated chips show increased neutrophil recruitment. IL-13+HRV induce an additive increase in neutrophil recruitment, while treatment with a CXCR2 antagonist. […] Quantification of neutrophil recruitment (**p<0.01; ****p<0.001).
HRV-16 is represented as small green dots in the upper channel while neutrophil cells (also described as polymorphonuclear leukocytes (PMN)) are represented as large purple spots in the lower channel. […] Quantification of neutrophil recruitment (**p<0.01; ****p<0.001).

[2] = tested on: goblet cells hyperplasia, pro-inflammatory cytokines, cilia beating frequency; assay: Small-airway-on-a-chip perfused with IL-13 (Th2 microenvironment), airway remodeling phenotype; type: cell-based, human; conditions: IL-13 through the vascular channel

SMILES	neutrophil recruitment [1]	IL-13 induced airway remodeling phenotype [2]
CC[C@@H](Nc1c(Nc2cccc(C(=O)N(C)C)c2O)c(=O)c1=O)c1ccc(C)o1 [MK-7123]	significantly reduced neutrophil recruitment	
C[C@@H]1CCN(C(=O)CC#N)C[C@@H]1N(C)c1ncnc2[nH]ccc12 [Tofacitinib]		suppressed
